In patent publication US8372844B2, “Piperazinyl-propyl-pyrazole derivatives as dopamine D4 receptor antagonists, and pharmaceutical compositions containing the same” (Korea Research Institute of Chemical Technology, priority 2007, dated 2013):

Columns and labels:
[1] = test system: apomorphine-induced cage climbing in mice; assay: Apomorphine-induced climbing behavior in mice; type: in vivo; settings: ip 30 min prior to apomorphine (1 mg/kg, sc); for ED50: Mus musculus, read-out: Inhibitory effects on apomorphine-induced climbing behavior ED50 (mg/kg, ip)
Protocol: When mice were treated with apomorphine (1 mg/kg, sc), a potent dopamine receptor agonist, and were put into cylindrical cages (diameter, 12 cm/height, 14 cm) with the floor and wall consisting of metal bars and covered with a lid, they begin to perform repeatedly a psychotic behavior of ‘cage climbing’. Their climbing behaviors were monitored every 10 min for 30 min and scored by 4-point rating scale (0˜3 points) depending on the extent of the behavior (Costentin, J. et al., Nature 1975, 257, 405-7; Protais, P. et al., Psychopharmacology 1976, 50, 1-6).
The compounds were injected intraperitoneally into mice 30 min prior to apomorphine administration. The inhibitory effects of the compounds against control group were measured and each ED50 was calculated therefrom.

rotarod deficit in mice [2] = assay: Rotarod deficit in mice; type: in vivo; settings: ip
Protocol: (§1) Each mouse was administered with a test drug, and then placed on a 1 inch diameter knurled plastic rod rotating at 6 rpm (Ugo-Basile, Milano, Italy), and the rotarod deficit (%) was obtained by counting the number of mice fallen from the rotating rod within 1 min at 30, 60, 90, and 120 min after the administration of the drug.

5-HT6 receptor = 5-HT6 receptor (Homo sapiens, UniProt P50406); assay: Serotonin receptor binding experiment, 5-HT6; design: species or system human or rat; settings: [3H]LSD 1.8 nM, 60 min at 37° C.; read-out: Receptor affinity (IC50, nM) 5-HT6
5-HT6 receptor, sequence (P50406 whole entry): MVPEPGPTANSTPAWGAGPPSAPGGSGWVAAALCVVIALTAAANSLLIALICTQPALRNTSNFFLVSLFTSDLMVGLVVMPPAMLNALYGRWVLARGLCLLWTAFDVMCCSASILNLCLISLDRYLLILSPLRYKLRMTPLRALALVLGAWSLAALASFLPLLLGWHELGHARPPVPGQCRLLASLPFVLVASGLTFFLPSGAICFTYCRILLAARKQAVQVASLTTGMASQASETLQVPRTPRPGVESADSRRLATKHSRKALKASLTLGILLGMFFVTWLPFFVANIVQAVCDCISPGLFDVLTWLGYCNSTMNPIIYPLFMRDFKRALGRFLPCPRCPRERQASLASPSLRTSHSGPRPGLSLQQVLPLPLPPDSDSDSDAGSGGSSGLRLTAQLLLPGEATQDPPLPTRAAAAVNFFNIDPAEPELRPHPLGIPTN
Protocol: (§2) The measurement of affinity for serotonin 5-HT receptor family was performed according to the experimental conditions as specified in Table 2 below using the method same as in Experimental Example 1 above.

5-HT1A receptor = biological target: T1, 5-HT1A receptor (Homo sapiens, UniProt P08908); assay: Serotonin receptor binding experiment, 5-HT1A; design: species or system human or rat; settings: [3H]8-OH-DPAT 0.5 nM, 60 min at 27° C.; read-out: Receptor affinity (IC50, nM) 5-HT1A
T1 sequence (P08908 1-422): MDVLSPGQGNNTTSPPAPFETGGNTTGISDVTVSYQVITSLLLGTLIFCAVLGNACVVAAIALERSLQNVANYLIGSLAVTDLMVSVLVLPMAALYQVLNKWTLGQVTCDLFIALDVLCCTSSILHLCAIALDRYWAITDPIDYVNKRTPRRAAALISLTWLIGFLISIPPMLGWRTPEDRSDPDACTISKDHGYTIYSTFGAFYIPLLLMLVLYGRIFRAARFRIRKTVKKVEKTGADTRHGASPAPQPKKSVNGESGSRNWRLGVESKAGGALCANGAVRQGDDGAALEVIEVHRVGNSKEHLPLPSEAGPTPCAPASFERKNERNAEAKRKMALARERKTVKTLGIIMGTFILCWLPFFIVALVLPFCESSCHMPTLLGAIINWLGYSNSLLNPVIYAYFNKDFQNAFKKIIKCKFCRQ
Protocol: as §2

5-HT2C receptor = biological target: T2, 5-HT2C receptor (Homo sapiens, UniProt P28335); assay: Serotonin receptor binding experiment, 5-HT2C; design: species or system human or rat; settings: [3H]Mesulergine 1 nM, 30 min at 37° C.; read-out: Receptor affinity (IC50, nM) 5-HT2C
T2 sequence (P28335 33-458): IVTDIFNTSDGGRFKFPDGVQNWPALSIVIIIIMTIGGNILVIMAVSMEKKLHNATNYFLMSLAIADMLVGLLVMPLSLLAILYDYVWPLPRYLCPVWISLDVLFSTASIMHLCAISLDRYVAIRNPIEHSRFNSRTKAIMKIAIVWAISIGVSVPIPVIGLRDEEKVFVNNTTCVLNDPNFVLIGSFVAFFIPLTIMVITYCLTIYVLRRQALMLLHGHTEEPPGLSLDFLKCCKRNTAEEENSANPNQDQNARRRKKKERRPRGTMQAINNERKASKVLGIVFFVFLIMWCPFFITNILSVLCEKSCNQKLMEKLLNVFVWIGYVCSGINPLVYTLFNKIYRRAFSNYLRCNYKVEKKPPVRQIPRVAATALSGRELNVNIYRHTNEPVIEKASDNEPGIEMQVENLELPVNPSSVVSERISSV
Protocol: as §2

[3] = biological target: T3, human recombinant dopamine D4.2 receptor (Homo sapiens, UniProt P21917, DEL265-296); assay: Measurement of affinity for dopamine D4 receptor ([3H]YM-09151-2 binding); settings: [3H]YM-09151-2 0.1 nM, receptor expressed in CHO-K1 cells, 120 min at 25° C.
T3 construct: purchased PerkinElmer Life and Analytical Sciences, USA; host or cells: CHO-K1 cells
T3 sequence (P21917 with tags, fused parts or gaps DEL265-296): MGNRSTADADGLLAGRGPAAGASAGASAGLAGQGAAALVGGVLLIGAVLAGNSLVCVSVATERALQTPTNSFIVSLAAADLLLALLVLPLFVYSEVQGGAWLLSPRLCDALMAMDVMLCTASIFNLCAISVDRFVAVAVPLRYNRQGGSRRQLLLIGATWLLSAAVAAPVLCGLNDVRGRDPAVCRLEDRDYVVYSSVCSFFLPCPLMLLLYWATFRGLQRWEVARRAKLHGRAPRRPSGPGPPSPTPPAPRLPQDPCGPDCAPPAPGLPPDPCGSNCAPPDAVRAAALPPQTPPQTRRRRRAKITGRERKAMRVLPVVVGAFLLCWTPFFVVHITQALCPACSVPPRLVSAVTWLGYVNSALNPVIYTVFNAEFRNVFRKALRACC
Protocol: The affinities of the compounds for dopamine D4 receptor were measured by using human recombinant dopamine D4.2 receptor (PerkinElmer Life and Analytical Sciences, USA) expressed in CHO-K1 cells, and [^3H]YM-09151-2 (PerkinElmer) was used as a radioactive ligand.
50 mM Tris-HCl (pH 7.4) containing 120 mM NaCl, 5 mM KCl, 5 mM MgCl2 and 1 mM EDTA was used as a buffer solution for the analysis of receptor binding. [^3H] YM-09151-2 binding reactions were performed in a 96-well plate format.
For drug screening, a reaction mixture with a final volume of 0.25 mL was prepared by mixing a compound of the present invention, D4 receptor membrane (43 μg/well), [^3H] YM-09151-2 (0.1 nM), 50 mM Tris-HCl (pH 7.4) and the like. The reaction mixture was incubated for 120 min at 25° C., and then promptly passed through Wallac GF/C glass fiber filter (Wallac, Finland), which was already wetted in 0.5% PEI, by using Inotech harvester (Inotech) to terminate the reaction, and then washed with cold 50 mM Tris-HCl buffer solution. The filter was then covered with MeltiLex, sealed in a sample bag, and then dried in an oven. The radioactivity retained in the filter was finally counted using MicroBeta Plus, Wallac.
The affinity (IC50) of a compound for the receptor was calculated via nonlinear regression analysis of sigmoidal dose-response equation with the data obtained from three independent experiments (GraphPad Prism Program, San Diego, USA), which are carried out using 7-8 different concentrations of the compound in duplicate. Nonspecific binding was measured in the presence of 10 μM clozapine.

5-HT2A receptor = 5-HT2A receptor (Homo sapiens, UniProt P28223); assay: Serotonin receptor binding experiment, 5-HT2A; design: species or system human or rat; settings: [3H]ketanserin 1 nM, 15 min at 37° C.; read-out: Receptor affinity (IC50, nM) 5-HT2A
5-HT2A receptor, sequence (P28223 whole entry): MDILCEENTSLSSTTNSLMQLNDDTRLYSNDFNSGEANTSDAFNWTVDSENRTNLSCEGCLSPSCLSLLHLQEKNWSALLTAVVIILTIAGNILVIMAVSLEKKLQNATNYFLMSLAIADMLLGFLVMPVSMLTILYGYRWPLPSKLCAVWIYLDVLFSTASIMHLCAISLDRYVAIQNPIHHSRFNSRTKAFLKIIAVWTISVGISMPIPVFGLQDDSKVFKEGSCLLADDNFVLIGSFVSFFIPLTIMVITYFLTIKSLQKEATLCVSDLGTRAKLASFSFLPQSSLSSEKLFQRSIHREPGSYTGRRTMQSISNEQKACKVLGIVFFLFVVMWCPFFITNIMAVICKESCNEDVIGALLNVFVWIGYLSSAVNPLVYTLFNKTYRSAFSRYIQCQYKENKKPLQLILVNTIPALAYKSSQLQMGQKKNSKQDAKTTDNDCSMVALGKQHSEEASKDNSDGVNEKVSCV
Protocol: as §2

[4] = biological target: T4, Human recombinant dopamine D2 receptor (Homo sapiens, UniProt P14416); assay: Measurement of affinity for dopamine D2 receptor ([3H]spiperone binding)
T4 construct: purchased PerkinElmer; host or cells: CHO cell line
T4 sequence (P14416 whole entry): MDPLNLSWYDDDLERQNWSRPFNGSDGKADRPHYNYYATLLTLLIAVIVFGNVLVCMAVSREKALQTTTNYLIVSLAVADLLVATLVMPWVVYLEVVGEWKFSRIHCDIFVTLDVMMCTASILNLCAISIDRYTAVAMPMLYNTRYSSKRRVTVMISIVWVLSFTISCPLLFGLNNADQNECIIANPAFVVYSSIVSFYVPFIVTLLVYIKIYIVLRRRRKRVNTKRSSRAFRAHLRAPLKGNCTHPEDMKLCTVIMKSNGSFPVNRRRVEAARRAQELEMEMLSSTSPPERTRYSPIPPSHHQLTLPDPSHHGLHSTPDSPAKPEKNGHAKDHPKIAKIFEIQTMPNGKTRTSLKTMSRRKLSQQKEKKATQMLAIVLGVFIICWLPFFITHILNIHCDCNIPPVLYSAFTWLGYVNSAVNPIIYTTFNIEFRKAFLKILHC
Protocol: (§3) Human recombinant dopamine D2 and D3 receptors, which were expressed in CHO cell lines, respectively, were purchased from PerkinElmer and Euroscreen, respectively.
(§4) 50 mM Tris-HCl (pH 7.4) containing […] and 1 mM EDTA was used as a buffer solution for the measurement of affinity for dopamine D2 receptor. 50 mM Tris-HCl (pH 7.4) containing 5 mM MgCl2, 5 mM EDTA, 5 mM KCl, 1.5 mM CaCl2 and 120 mM NaCl was used as a buffer solution for the measurement of affinity for dopamine D3 receptor. For measurement of non-specific binding, 10 μM haloperidol (haloperidol) was used.

[5] = biological target: T5, Human recombinant dopamine D3 receptor (Homo sapiens, UniProt P35462); assay: Measurement of affinity for dopamine D3 receptor ([3H]spiperone binding); settings: [3H]spiperone 0.8 nM, CHO cell line, 60 min at 27° C.
T5 construct: purchased Euroscreen; host or cells: CHO cell line
T5 sequence (P35462 whole entry): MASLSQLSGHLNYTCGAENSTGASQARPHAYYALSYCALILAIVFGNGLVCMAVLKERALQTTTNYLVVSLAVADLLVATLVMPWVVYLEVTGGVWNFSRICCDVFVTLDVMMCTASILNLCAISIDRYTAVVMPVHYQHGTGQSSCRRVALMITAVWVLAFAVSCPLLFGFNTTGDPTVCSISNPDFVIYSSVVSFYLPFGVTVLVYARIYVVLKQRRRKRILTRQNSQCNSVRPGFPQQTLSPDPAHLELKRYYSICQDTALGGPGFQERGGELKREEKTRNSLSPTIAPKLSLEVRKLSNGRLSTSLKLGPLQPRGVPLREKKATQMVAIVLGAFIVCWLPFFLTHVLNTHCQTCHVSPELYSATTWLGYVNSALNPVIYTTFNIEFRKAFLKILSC
Protocol: as §3, §4

5-HT7 receptor = 5-HT7 receptor (Homo sapiens, UniProt P34969); assay: Serotonin receptor binding experiment, 5-HT7; design: species or system human or rat; settings: [3H]LSD 3 nM, 90 min at 27° C.; read-out: Receptor affinity (IC50, nM) 5-HT7
5-HT7 receptor, sequence (P34969 whole entry): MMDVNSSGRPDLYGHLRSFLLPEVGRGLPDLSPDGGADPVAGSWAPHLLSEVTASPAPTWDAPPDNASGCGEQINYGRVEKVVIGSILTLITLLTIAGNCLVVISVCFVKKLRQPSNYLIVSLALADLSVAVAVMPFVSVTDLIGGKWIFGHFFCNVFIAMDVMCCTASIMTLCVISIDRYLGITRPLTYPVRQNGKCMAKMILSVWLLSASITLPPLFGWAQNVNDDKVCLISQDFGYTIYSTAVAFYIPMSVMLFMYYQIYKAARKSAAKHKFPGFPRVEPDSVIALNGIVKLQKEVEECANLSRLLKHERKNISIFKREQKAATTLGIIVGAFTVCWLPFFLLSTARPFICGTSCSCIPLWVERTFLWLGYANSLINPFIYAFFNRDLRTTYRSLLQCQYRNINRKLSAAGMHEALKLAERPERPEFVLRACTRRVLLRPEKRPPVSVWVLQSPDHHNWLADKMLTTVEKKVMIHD
Protocol: as §2

Rotarod deficit in mice [6] = type: in vivo; settings: mouse, in vivo; mice, ip, rod rotating at 6 rpm, 30-120 min after administration
Protocol: as §1

## CCCc1cc(CCCN2CCN(c3ccc(Cl)cc3)CC2)n(-c2ccccc2)n1 [Compound 157, 1-(4-chlorophenyl)-4-(3-(1-phenyl-3-propyl-1H-pyrazol-5-yl)propyl)piperazine]
[1]
  ED50: 8.8 to 14.5 mg/kg
  Inhibitory effects on apomorphine-induced climbing behavior ED50 (mg/kg, ip): 14.5 mg/kg
Rotarod deficit in mice [2]; mouse, in vivo
  rotarod deficit TD50 as times of ED50 for antipsychotic efficacy: 2.2-5 times

## CCCc1cc(CCCN2CCN(c3ccc(Cl)c(Cl)c3)CC2)n(-c2ccccc2)n1 [Compound 163, 1-(3,4-dichlorophenyl)-4-(3-(1-phenyl-3-propyl-1H-pyrazol-5-yl)propyl)piperazine]
5-HT6 receptor
  IC50: 617 nM
5-HT1A receptor
  IC50: 494 nM
5-HT2C receptor
  IC50: 558 nM
[3]
  IC50: 7.7 nM
5-HT2A receptor
  IC50: 45 nM
[4]
  affinity for D2 receptors (in words): extremely poor affinity
[4]; [3H]spiperone 0.5 nM, CHO cell line, 60 min at 27° C.
  IC50: 1060 nM
[5]
  IC50: 420 nM
5-HT7 receptor
  IC50: 651 nM

## CN1CCN(C2=Nc3cc(Cl)ccc3Nc3ccccc32)CC1 [clozapine, reference compound]
[1]
  ED50: 4 mg/kg
Rotarod deficit in mice [6]
  TD50: 3.9 mg/kg
Rotarod deficit in mice [2]; mice
  rotarod deficit TD50 as times of ED50 for antipsychotic efficacy: almost same
